Data reported in article PMC8611796, “Defining natural factors that stimulate and inhibit cellulose:xyloglucan hetero‐transglucosylation” (The Plant Journal, 2021).

Experiments:
Format in all cases: biochemical
[1] = biological target: T1, EfHTG (Equisetum fluviatile hetero-trans-beta-glucanase) (Equisetum fluviatile, UniProt A0A0K2WA62); assay: radiochemical CXE and MXE assay, [3H]XXXGol incorporation; conditions: cellulose or MLG donor, succinate pH 5.5, 20 C, 24 h
T1 construct: gene HTG; secreted by Pichia pastoris SMD1168H; culture filtrate used; made as in Simmons et al. 2015
T1 sequence (A0A0K2WA62 22-280): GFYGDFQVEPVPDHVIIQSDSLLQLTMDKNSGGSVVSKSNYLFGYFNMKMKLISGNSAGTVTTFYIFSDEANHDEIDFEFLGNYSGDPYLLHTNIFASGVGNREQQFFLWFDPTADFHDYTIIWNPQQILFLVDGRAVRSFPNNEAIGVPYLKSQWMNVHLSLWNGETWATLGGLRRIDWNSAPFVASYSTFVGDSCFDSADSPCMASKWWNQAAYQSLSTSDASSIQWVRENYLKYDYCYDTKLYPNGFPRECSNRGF

[2] = biological target: T1, EfHTG (Equisetum fluviatile hetero-trans-beta-glucanase); assay: radiochemical CXE assay, [3H]XXXGol incorporation; conditions: read-out: % inhibition at 0.3 mM
[3] = biological target: T1, EfHTG (Equisetum fluviatile hetero-trans-beta-glucanase); assay: radiochemical transglucosylase assay (XET, MXE, CXE); conditions: acceptor substrate; labelled compound; xyloglucan, MLG or cellulose donor; pH 5.5

SMILES | % inhibition ([1]; [3H]XXXGol acceptor) | further results
OC[C@H]1O[C@@H](O[C@H]2[C@H](O)[C@@H](O)C(O)O[C@@H]2CO)[C@H](O)[C@@H](O)[C@@H]1O (stereo partly shown) [cellobiose] |  | % inhibition ([1]; 0.01-80 mM inhibitor, [3H]XXXGol or [3H]XyG acceptor): Cellobiose inhibited EfHTG’s CXE activity equally whether [^3H]XXXGol or polymeric [^3H]XyG was the acceptor
OC[C@H]1O[C@@H](O[C@H]2[C@H](O)[C@@H](O)[C@H](O[C@H]3[C@H](O)[C@@H](O)[C@H](O[C@H]4[C@H](O)[C@@H](O)C(O)O[C@@H]4CO)O[C@@H]3CO)O[C@@H]2CO)[C@H](O)[C@@H](O)[C@@H]1O (stereo partly shown) [cellotetraose] | We found that cello‐oligosaccharides (C2–C6) are efficient inhibitors of Equisetum HTG | 
OC[C@H]1O[C@@H](O[C@H]2[C@H](O)[C@@H](O)[C@H](O[C@H]3[C@H](O)[C@@H](O)[C@H](O[C@H]4[C@H](O)[C@@H](O)[C@H](O[C@H]5[C@H](O)[C@@H](O)[C@H](O[C@H]6[C@H](O)[C@@H](O)C(O)O[C@@H]6CO)O[C@@H]5CO)O[C@@H]4CO)O[C@@H]3CO)O[C@@H]2CO)[C@H](O)[C@@H](O)[C@@H]1O (stereo partly shown) [cellohexaose] | We found that cello‐oligosaccharides (C2–C6) are efficient inhibitors of Equisetum HTG | 
CCCCN1C[C@H](O)[C@@H](O)[C@H](O)[C@H]1CO [N-butyldeoxynojirimycin] |  | inhibition at 300 µM [2]: ~50%
OC[C@H]1O[C@@H](O[C@H]2[C@H](O)[C@@H](O)[C@H](O[C@H]3[C@H](O)[C@@H](O)[C@H](O[C@H]4[C@H](O)[C@@H](O)[C@H](O[C@H]5[C@H](O)[C@@H](O)C(O)O[C@@H]5CO)O[C@@H]4CO)O[C@@H]3CO)O[C@@H]2CO)[C@H](O)[C@@H](O)[C@@H]1O (stereo partly shown) [cellopentaose] | We found that cello‐oligosaccharides (C2–C6) are efficient inhibitors of Equisetum HTG | 
OC[C@H]1O[C@@H](O[C@H]2[C@H](O)[C@@H](O)[C@H](O[C@H]3[C@H](O)[C@@H](O)C(O)O[C@@H]3CO)O[C@@H]2CO)[C@H](O)[C@@H](O)[C@@H]1O (stereo partly shown) [cellotriose] | We found that cello‐oligosaccharides (C2–C6) are efficient inhibitors of Equisetum HTG | 
OC[C@@H](O)[C@@H](O[C@@H]1O[C@H](CO[C@H]2OC[C@@H](O)[C@H](O)[C@H]2O)[C@@H](O[C@@H]2O[C@H](CO[C@H]3OC[C@@H](O)[C@H](O)[C@H]3O)[C@@H](O[C@@H]3O[C@H](CO[C@H]4OC[C@@H](O)[C@H](O)[C@H]4O)[C@@H](O)[C@H](O)[C@H]3O)[C@H](O)[C@H]2O)[C@H](O)[C@H]1O)[C@H](O)[C@@H](O)CO [[3H]XXXGol] |  | radiochemical transglucosylase assay (XET, MXE, CXE) [3]: albeit at lower rates than onto the oligosaccharide [^3H]XXXGol
